Results taken from patent US9763445B2, “Safened herbicidal compositions comprising a pyridine carboxylic acid herbicide” (Dow AgroSciences, LLC, priority 2014, dated 2017).

Legend:
pigweed (AMARE) = test: Postemergence greenhouse trial, % visual injury on pigweed; assay type: in vivo, Amaranthus retroflexus; details: for % visual injury, observed (Ob) / % visual injury, Ob: AMARE; for % visual injury, Ob: CQC-m 0 g/ha
Summary of the method: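 Injury was scored visually (0 = none, 100 = complete kill) 20–22 d after track-sprayer application at 187 L/ha, compared with solvent-sprayed controls. Test plants at the 2–3 true leaf stage; herbicide (g ae/ha) plus cloquintocet-mexyl safener (g ai/ha) in crop-oil-containing spray; expected mixture response by Colby.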

[1] = test system: bird's-eye speedwell (VERPE); test: Postemergence greenhouse trial, % visual injury on bird's-eye speedwell; assay type: in vivo, Veronica persica; details: VERPE; for % visual injury, Ob: CQC-m 0 g/ha
Method: Seeds of the desired test plant species were planted in Sun Gro MetroMix® 306 planting mixture, which typically has a pH of 6.0 to 6.8 and an organic matter content of about 30 percent, in plastic pots with a surface area of 103.2 square centimeters (cm^2). When required to ensure good germination and healthy plants, a fungicide treatment and/or other chemical or physical treatment was applied. The plants were grown for 7-36 days (d) in a greenhouse with an approximate 14-hour (h) photoperiod which was maintained at about 23° C. during the day and 22° C. during the night. Nutrients and water were added on a regular basis and supplemental lighting was provided with overhead metal halide 1000-Watt lamps as necessary. The plants were employed for testing when they reached the second or third true leaf stage.
Weighed amounts of technical material were dissolved in a volume of 97:3 volume per volume (v/v) acetone/dimethyl sulfoxide (DMSO) to stock solutions. […] The concentrated stock solutions were diluted with an aqueous mixture of 1.5% v/v of Agri-dex crop oil concentrate to provide the appropriate application rates. Compound requirements are based upon a 12 milliliter (mL) application volume at a rate of 187 liters per hectare (L/ha). Stocks solutions of the safeners were prepared following the same procedure. Spray solutions of the safeners and experimental compound mixtures were prepared by adding the stock solutions to the appropriate amount of dilution solution to form a 12 mL spray solution in two-way combinations. Formulated compounds were applied to the plant material with an overhead Mandel track sprayer equipped with 8002E nozzles calibrated to deliver 187 L/ha over an application area of 0.503 square meters (m^2) at a spray height of 18 inches (43 centimeters (cm)) above average plant canopy. Control plants were sprayed in the same manner with the solvent blank. All herbicide application (component a) rates are in g ae/ha and all safener (component b) rates are in g ai/ha.
The treated plants and control plants were placed in a greenhouse as described above and watered by sub-irrigation to prevent wash-off of the test compounds. After 20-22 d, the condition of the test plants as compared with that of the control plants was determined visually and scored on a scale of 0 to 100 percent where 0 corresponds to no injury and 100 corresponds to complete kill. […] Colby's equation was used to determine the herbicidal effects expected from the mixtures. […]

lambsquarters (CHEAL) = test: Postemergence greenhouse trial, % visual injury on lambsquarters; assay type: in vivo, Chenopodium album; details: for % visual injury, observed (Ob): CHEAL
Summary of the method: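 Visual injury, 0 (none) to 100 (complete kill), rated 20-22 d after overhead track-sprayer application at 187 L/ha; Colby's equation gave expected mixture responses. Herbicide (g ae/ha) and cloquintocet-mexyl safener (g ai/ha) diluted in aqueous 1.5% v/v Agri-dex, applied to weeds at 2–3 true leaves.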

Russian thistle (SASKR) = test: Postemergence greenhouse trial, % visual injury on Russian thistle; assay type: in vivo, Salsola kali; details: SASKR; for % visual injury, Ob: CQC-m 0 g/ha
spring barley (HORVS) = test: Postemergence greenhouse trial, % visual injury on spring barley; assay type: in vivo, Hordeum vulgare; details: HORVS; for % visual injury, Ob: CQC-m 0 g/ha
Summary of the method: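 Greenhouse crops at second to third true leaf stage sprayed postemergence at 187 L/ha with herbicide (g ae/ha) plus safener (g ai/ha) in acetone/DMSO diluted into 1.5% v/v Agri-dex. Injury scored visually versus solvent-blank controls after 20-22 d, 0 (none) to 100% (complete kill); expected mixture effects by Colby's equation.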

[2] = compound 2 4.380 + CQC-m 0 g/ha
[3] = compound 8 4.380 + CQC-m 0 g/ha

With `Nc1c(F)c(-c2ccc3cc[nH]c3c2F)nc(C(=O)OCc2ccccc2)c1Cl` [compound 2] as the compound, how does the “% visual injury, observed (Ob)” value (pigweed (AMARE); [2]) read?
Its value is 80%.

What about the “% visual injury, observed (Ob)” value (pigweed (AMARE); compound 2 8.75 + CQC-m 0 g/ha) of the same compound?
The value was 95%.

What about the “% visual injury, observed (Ob)” value (pigweed (AMARE); compound 2 17.5 + CQC-m 0 g/ha) of the same compound?
The value was 100%.

What about the pest or weed control at 35 g/ha (pigweed (AMARE); Amaranthus retroflexus, post-emergence, alone, 35 g/ha, read-out: % visual injury, Ob) of the same compound?
Its pest or weed control at 35 g/ha is 100%.

What about the “% visual injury, observed (Ob)” value [1, 2] of the same compound?
Its value is 75%.

And the “% visual injury, observed (Ob)” value ([1]; compound 2 8.75 + CQC-m 0 g/ha)?
Its value is 95%.

What about the “% visual injury, observed (Ob)” value ([1]; compound 2 17.5 + CQC-m 0 g/ha) of the same compound?
The value was 100%.

And the “% visual injury, observed (Ob)” value ([1]; compound 2 35 + CQC-m 0 g/ha)?
Its value is 100%.

And the “% visual injury, observed (Ob)” value ([1]; compound 2 70 + CQC-m 0 g/ha)?
The value was 100%.

What about the “% visual injury, observed (Ob)” value (lambsquarters (CHEAL); [2]) of the same compound?
Its value is 85%.

What about the “% visual injury, observed (Ob)” value (lambsquarters (CHEAL); compound 2 8.75 + CQC-m 0 g/ha) of the same compound?
Its value is 95%.

What about the “% visual injury, observed (Ob)” value (lambsquarters (CHEAL); compound 2 17.5 + CQC-m 0 g/ha) of the same compound?
Its value is 97%.

And the “% visual injury, observed (Ob)” value (lambsquarters (CHEAL); compound 2 35 + CQC-m 0 g/ha)?
Its value is 100%.

And the “% visual injury, observed (Ob)” value (lambsquarters (CHEAL); compound 2 70 + CQC-m 0 g/ha)?
Its value is 100%.

What about the pest or weed control at 35 g/ha (lambsquarters (CHEAL); Chenopodium album, post-emergence, alone, 35 g/ha, read-out: % visual injury, Ob) of the same compound?
The pest or weed control at 35 g/ha was 97%.

And the “% visual injury, observed (Ob)” value (Russian thistle (SASKR); [2])?
Its value is 75%.

And the “% visual injury, observed (Ob)” value (Russian thistle (SASKR); compound 2 8.75 + CQC-m 0 g/ha)?
Its value is 85%.

What about the “% visual injury, observed (Ob)” value (Russian thistle (SASKR); compound 2 17.5 + CQC-m 0 g/ha) of the same compound?
Its value is 89%.

And the “% visual injury, observed (Ob)” value (Russian thistle (SASKR); compound 2 35 + CQC-m 0 g/ha)?
The value was 92%.

What about the “% visual injury, observed (Ob)” value (Russian thistle (SASKR); compound 2 70 + CQC-m 0 g/ha) of the same compound?
The value was 92%.

With `COC(=O)c1nc(-c2ccc3cc[nH]c3c2F)c(F)c(N)c1Cl` [compound 8] as the compound, how does the “% visual injury, observed (Ob)” value [1, 3] read?
The value was 83%.

What about the “% visual injury, observed (Ob)” value ([1]; compound 8 8.75 + CQC-m 0 g/ha) of the same compound?
Its value is 92%.

And the “% visual injury, observed (Ob)” value ([1]; compound 8 17.5 + CQC-m 0 g/ha)?
The value was 96%.

What about the “% visual injury, observed (Ob)” value ([1]; compound 8 35 + CQC-m 0 g/ha) of the same compound?
Its value is 98%.

And the “% visual injury, observed (Ob)” value ([1]; compound 8 70 + CQC-m 0 g/ha)?
Its value is 100%.

And the “% visual injury, observed (Ob)” value (lambsquarters (CHEAL); [3])?
The value was 86%.

What about the “% visual injury, observed (Ob)” value (lambsquarters (CHEAL); compound 8 8.75 + CQC-m 0 g/ha) of the same compound?
Its value is 92%.

And the “% visual injury, observed (Ob)” value (lambsquarters (CHEAL); compound 8 17.5 + CQC-m 0 g/ha)?
The value was 99%.

What about the “% visual injury, observed (Ob)” value (lambsquarters (CHEAL); compound 8 35 + CQC-m 0 g/ha) of the same compound?
The value was 100%.

And the “% visual injury, observed (Ob)” value (lambsquarters (CHEAL); compound 8 70 + CQC-m 0 g/ha)?
The value was 100%.

What about the “% visual injury, observed (Ob)” value (Russian thistle (SASKR); [3]) of the same compound?
Its value is 61%.

And the “% visual injury, observed (Ob)” value (Russian thistle (SASKR); compound 8 8.75 + CQC-m 0 g/ha)?
The value was 69%.

And the “% visual injury, observed (Ob)” value (Russian thistle (SASKR); compound 8 17.5 + CQC-m 0 g/ha)?
The value was 83%.

What about the “% visual injury, observed (Ob)” value (Russian thistle (SASKR); compound 8 35 + CQC-m 0 g/ha) of the same compound?
The value was 85%.

What about the “% visual injury, observed (Ob)” value (Russian thistle (SASKR); compound 8 70 + CQC-m 0 g/ha) of the same compound?
Its value is 90%.

And the “% visual injury, observed (Ob)” value (spring barley (HORVS); [3])?
Its value is 12%.

And the “% visual injury, observed (Ob)” value (spring barley (HORVS); compound 8 8.75 + CQC-m 0 g/ha)?
Its value is 18%.

What about the “% visual injury, observed (Ob)” value (spring barley (HORVS); compound 8 17.5 + CQC-m 0 g/ha) of the same compound?
Its value is 31%.

And the “% visual injury, observed (Ob)” value (spring barley (HORVS); compound 8 35 + CQC-m 0 g/ha)?
Its value is 43%.

What about the “% visual injury, observed (Ob)” value (spring barley (HORVS); compound 8 70 + CQC-m 0 g/ha) of the same compound?
Its value is 53%.

Which results are given for `COc1c(C(=O)O)nc(-c2ccc3cc[nH]c3c2F)c(F)c1N` [compound 13]?
% visual injury, Ob ([1]; compound 4.375 g/ha): 85%; % visual injury, Ob ([1]; compound 8.75 g/ha): 93%; % visual injury, Ob ([1]; compound 17.5 g/ha): 98%; % visual injury, Ob ([1]; compound 35 g/ha): 98%; % visual injury, Ob ([1]; compound 70 g/ha): 100%; % visual injury, Ob (Russian thistle (SASKR); compound 4.375 g/ha): 50%; % visual injury, Ob (Russian thistle (SASKR); compound 8.75 g/ha): 65%; % visual injury, Ob (Russian thistle (SASKR); compound 17.5 g/ha): 77%; % visual injury, Ob (Russian thistle (SASKR); compound 35 g/ha): 83%; % visual injury, Ob (Russian thistle (SASKR); compound 70 g/ha): 91%; % visual injury, Ob (spring barley (HORVS); compound 4.375 g/ha): 30%; % visual injury, Ob (spring barley (HORVS); compound 8.75 g/ha): 38%; % visual injury, Ob (spring barley (HORVS); compound 17.5 g/ha): 55%; % visual injury, Ob (spring barley (HORVS); compound 35 g/ha): 64%; % visual injury, Ob (spring barley (HORVS); compound 70 g/ha): 73%

`Nc1cc(-c2ccc3cc[nH]c3c2F)nc(C(=O)O)c1Cl` [compound 15] was tested. Which “% visual injury, Ob” value (pigweed (AMARE); compound 4.375 g/ha) did it give?
The value was 70%.

What about the “% visual injury, Ob” value (pigweed (AMARE); compound 8.75 g/ha) of the same compound?
Its value is 100%.

And the “% visual injury, Ob” value (pigweed (AMARE); compound 17.5 g/ha)?
The value was 100%.

And the “% visual injury, Ob” value (pigweed (AMARE); compound 35 g/ha)?
The value was 100%.

And the “% visual injury, Ob” value ([1]; compound 4.375 g/ha)?
Its value is 85%.

What about the “% visual injury, Ob” value ([1]; compound 8.75 g/ha) of the same compound?
Its value is 85%.

And the “% visual injury, Ob” value ([1]; compound 17.5 g/ha)?
Its value is 90%.

What about the “% visual injury, Ob” value ([1]; compound 35 g/ha) of the same compound?
The value was 93%.

And the “% visual injury, Ob” value ([1]; compound 70 g/ha)?
Its value is 95%.

And the “% visual injury, Ob” value (Russian thistle (SASKR); compound 4.375 g/ha)?
The value was 10%.

And the “% visual injury, Ob” value (Russian thistle (SASKR); compound 8.75 g/ha)?
The value was 10%.

And the “% visual injury, Ob” value (Russian thistle (SASKR); compound 17.5 g/ha)?
Its value is 10%.

What about the “% visual injury, Ob” value (Russian thistle (SASKR); compound 35 g/ha) of the same compound?
The value was 60%.

And the “% visual injury, Ob” value (Russian thistle (SASKR); compound 70 g/ha)?
Its value is 70%.

And the “% visual injury, Ob” value (spring barley (HORVS); compound 4.375 g/ha)?
Its value is 0%.

What about the “% visual injury, Ob” value (spring barley (HORVS); compound 8.75 g/ha) of the same compound?
Its value is 0%.

What about the “% visual injury, Ob” value (spring barley (HORVS); compound 17.5 g/ha) of the same compound?
Its value is 0%.

And the “% visual injury, Ob” value (spring barley (HORVS); compound 35 g/ha)?
The value was 10%.

And the “% visual injury, Ob” value (spring barley (HORVS); compound 70 g/ha)?
The value was 10%.
